Reference: ChEMBL document CHEMBL3044926, “Controlling powdery mildew on cucurbit rootstock seedlings in the greenhouse with fungicides and biofungicides” (Crop Prot, 2012)

How the values were obtained:
[1] = system: Podosphaera xanthii; experiment: (§1) Fungicidal activity against Podosphaera xanthii (powdery mildew) inoculated in Lagenaria siceraria Emphasis continuously after first drug application assessed as disease severity on lower surface areas of cotyledons at 98.2% in 11.99 g/L applied thrice at 5-days intervals measured 5 days after third application under green house conditions (water Rvb = 13.9%); format: functional
[2] = system: Podosphaera xanthii; experiment: (§2) Fungicidal activity against Podosphaera xanthii (powdery mildew) inoculated in inter-specific squash hybrid Strong tosa (Cucurbita moschata x Cucurbita maxima) rootstock seedlings for 7 days prior to drug application assessed as disease severity at 98.2% in 11.99 g/L applied once measured 7 days post-drug dose under greenhouse conditions (water Rvb = 17.5%); format: functional
[3] = system: Lagenaria siceraria; experiment: Phytotoxicity against Lagenaria siceraria 'Emphasis' rootstock seedlings assessed as stunting; format: organism-based; conditions: in vivo
[4] = system: Podosphaera xanthii; experiment: Fungicidal activity against Podosphaera xanthii (powdery mildew) inoculated in squash (Cucurbita pepo) rootstock seedlings continuously after first drug application assessed as incidence of disease symptoms on hypocotyls or upper or lower sides of cotyledons at 98.2% in 11.99 g/L applied thrice at 5-days intervals measured 5 days after third application under green house conditions (water Rvb = …; format: functional
[5] = system: Podosphaera xanthii; experiment: (§3) Fungicidal activity against Podosphaera xanthii (powdery mildew) inoculated in Lagenaria siceraria Emphasis continuously after first drug application assessed as incidence of disease symptoms on hypocotyls or upper or lower sides of cotyledons at 98.2% in 11.99 g/L applied thrice at 5-days intervals measured 5 days after third application under green house conditions (water Rvb = 100%); format: functional
[6] = system: Cucurbita maxima x Cucurbita moschata; experiment: Phytotoxicity against inter-specific squash hybrid Cucurbita moschata x Cucurbita maxima (Strong tosa) rootstock seedlings assessed as stunting; format: organism-based; conditions: in vivo
[7] = system: Podosphaera xanthii; experiment: as §2, with “severity on lower surface areas of cotyledonsat” for “severity at”, “= 5.1%)” for “= 17.5%)”; format: functional
[8] = system: Podosphaera xanthii; experiment: as §2, with “severity on upper surface areas of cotyledonsat” for “severity at”, “= 10.2%)” for “= 17.5%)”; format: functional
[9] = system: Podosphaera xanthii; experiment: Fungicidal activity against Podosphaera xanthii (powdery mildew) inoculated in inter-specific squash hybrid Strong tosa (Cucurbita moschata x Cucurbita maxima) rootstock seedlings for 7 days prior to drug application assessed as incidence of disease symptoms on hypocotyls or upper or lower sides of cotyledons at 98.2% in 11.99 g/L applied once measured 7 days post-drug dose under greenhouse …; format: functional
[10] = system: Podosphaera xanthii; experiment: as §1, with “squash (Cucurbita pepo) rootstock seedlings” for “Lagenaria siceraria Emphasis”, “severity” for “severity on lower surface areas of cotyledons”, “3.9%)” for “13.9%)”; format: functional
[11] = system: Lagenaria siceraria; experiment: Phytotoxicity against Lagenaria siceraria 'Emphasis' rootstock seedlings; format: organism-based; conditions: in vivo
[12] = system: Podosphaera xanthii; experiment: as §1, with “upper” for “lower”, “36.8%)” for “13.9%)”; format: functional
[13] = system: Podosphaera xanthii; experiment: as §1, with “severity” for “severity on lower surface areas of cotyledons”, “53.5%)” for “13.9%)”; format: functional
[14] = system: Cucurbita maxima x Cucurbita moschata; experiment: Phytotoxicity against inter-specific squash hybrid Cucurbita moschata x Cucurbita maxima (Strong tosa) rootstock seedlings; format: organism-based; conditions: in vivo
[15] = system: Podosphaera xanthii; experiment: Fungicidal activity against Podosphaera xanthii (powdery mildew) inoculated in squash (Cucurbita pepo) rootstock seedlings continuously after first drug application assessed as incidence of disease symptoms on hypocotyls or upper or lower sides of cotyledons at 38.7% in 0.62 ml/L applied thrice at 5-days intervals measured 5 days after third application under green house conditions (water Rvb = …; format: functional
[16] = system: Podosphaera xanthii; experiment: Fungicidal activity against Podosphaera xanthii (powdery mildew) inoculated in inter-specific squash hybrid Strong tosa (Cucurbita moschata x Cucurbita maxima) rootstock seedlings continuously after first drug application assessed as incidence of disease symptoms on hypocotyls or upper or lower sides of cotyledons at 38.7% in 0.62 ml/L applied thrice at 5-days intervals measured 5 days after …; format: functional
[17] = system: Cucurbita maxima x Cucurbita moschata; experiment: Phytotoxicity against inter-specific squash hybrid Cucurbita moschata x Cucurbita maxima (Strong tosa) rootstock seedlings assessed as stunted growth; format: organism-based; conditions: in vivo
[18] = system: Podosphaera xanthii; experiment: Fungicidal activity against Podosphaera xanthii (powdery mildew) inoculated in inter-specific squash hybrid Strong tosa (Cucurbita moschata x Cucurbita maxima) rootstock seedlings for 7 days prior to drug application assessed as incidence of disease symptoms on hypocotyls or upper or lower sides of cotyledons at 38.7% in 0.62 ml/L applied once measured 7 days post-drug dose under greenhouse …; format: functional
[19] = system: Podosphaera xanthii; experiment: as §3, with “38.7%” for “98.2%”, “0.62 ml/L” for “11.99 g/L”; format: functional
[20] = system: Podosphaera xanthii; experiment: as §2, with “on lower surface areas of cotyledonsat 38.7%” for “at 98.2%”, “0.62 ml/L” for “11.99 g/L”, “5.1%)” for “17.5%)”; format: functional
[21] = system: Podosphaera xanthii; experiment: as §2, with “on upper surface areas of cotyledonsat 38.7%” for “at 98.2%”, “0.62 ml/L” for “11.99 g/L”, “10.2%)” for “17.5%)”; format: functional
[22] = system: Podosphaera xanthii; experiment: as §1, with “severity” for “severity on lower surface areas of cotyledons”, “38.7%” for “98.2%”, “0.62 ml/L” for “11.99 g/L”, “53.5%)” for “13.9%)”; format: functional
[23] = system: Podosphaera xanthii; experiment: (§4) Fungicidal activity against Podosphaera xanthii (powdery mildew) inoculated in inter-specific squash hybrid Strong tosa (Cucurbita moschata x Cucurbita maxima) rootstock seedlings continuously after first drug application assessed as disease severity at 38.7% in 0.62 ml/L applied thrice at 5-days intervals measured 5 days after third application under green house conditions (water Rvb = 4.2%); format: functional
[24] = system: Podosphaera xanthii; experiment: as §4, with “in” for “in inter-specific”, “squash” for “squash hybrid Strong tosa”, “pepo)” for “moschata x Cucurbita maxima)”, “3.9%)” for “4.2%)”; format: functional
[25] = system: Podosphaera xanthii; experiment: as §1, with “38.7%” for “98.2%”, “0.62 ml/L” for “11.99 g/L”; format: functional
[26] = system: Podosphaera xanthii; experiment: as §1, with “upper” for “lower”, “38.7%” for “98.2%”, “0.62 ml/L” for “11.99 g/L”, “36.8%)” for “13.9%)”; format: functional
[27] = system: Lagenaria siceraria; experiment: Phytotoxicity against Lagenaria siceraria 'Emphasis' rootstock seedlings assessed as seedlings with stunted growth; format: organism-based; conditions: in vivo
[28] = system: Podosphaera xanthii; experiment: as §2, with “38.7%” for “98.2%”, “0.62 ml/L” for “11.99 g/L”; format: functional
[29] = system: Lagenaria siceraria; experiment: Phytotoxicity against Lagenaria siceraria 'Emphasis' rootstock seedlings assessed as stunted growth; format: organism-based; conditions: in vivo
[30] = system: Cucurbita maxima x Cucurbita moschata; experiment: Phytotoxicity against inter-specific squash hybrid Cucurbita moschata x Cucurbita maxima (Strong tosa) rootstock seedlings assessed as seedlings with stunted growth; format: organism-based; conditions: in vivo
[31] = system: Podosphaera xanthii; experiment: as §2, with “45%” for “98.2%”, “0.6” for “11.99”; format: functional
[32] = system: Podosphaera xanthii; experiment: (§5) Fungicidal activity against Podosphaera xanthii (powdery mildew) inoculated in squash (Cucurbita pepo) rootstock seedlings continuously after first drug application assessed as disease severity at 45% in 0.6 g/L applied thrice at 5-days intervals measured 5 days after third application under green house conditions (water Rvb = 3.9%); format: functional
[33] = system: Podosphaera xanthii; experiment: as §2, with “on lower surface areas of cotyledonsat 45%” for “at 98.2%”, “0.6” for “11.99”, “rvb” for “Rvb”, “5.1%)” for “17.5%)”; format: functional
[34] = system: Podosphaera xanthii; experiment: Fungicidal activity against Podosphaera xanthii (powdery mildew) inoculated in inter-specific squash hybrid Strong tosa (Cucurbita moschata x Cucurbita maxima) rootstock seedlings for 7 days prior to drug application assessed as incidence of disease symptoms on hypocotyls or upper or lower sides of cotyledons at 45% in 0.6 g/L applied once measured 7 days post-drug dose under greenhouse …; format: functional
[35] = system: Podosphaera xanthii; experiment: Fungicidal activity against Podosphaera xanthii (powdery mildew) inoculated in squash (Cucurbita pepo) rootstock seedlings continuously after first drug application assessed as incidence of disease symptoms on hypocotyls or upper or lower sides of cotyledons at 45% in 0.6 g/L applied thrice at 5-days intervals measured 5 days after third application under green house conditions (water Rvb = …; format: functional
[36] = system: Podosphaera xanthii; experiment: as §2, with “on upper surface areas of cotyledonsat 45%” for “at 98.2%”, “0.6” for “11.99”, “10.2%)” for “17.5%)”; format: functional
[37] = system: Podosphaera xanthii; experiment: as §2, with “on lower surface areas of cotyledonsat 46.1%” for “at 98.2%”, “1.50” for “11.99”, “5.1%)” for “17.5%)”; format: functional, organism-based
[38] = system: Podosphaera xanthii; experiment: Fungicidal activity against Podosphaera xanthii (powdery mildew) inoculated in inter-specific squash hybrid Strong tosa (Cucurbita moschata x Cucurbita maxima) rootstock seedlings for 7 days prior to drug application assessed as incidence of disease symptoms on hypocotyls or upper or lower sides of …; format: functional, organism-based
[39] = system: Podosphaera xanthii; experiment: as §2, with “46.1%” for “98.2%”, “1.50” for “11.99”; format: functional, organism-based
[40] = system: Podosphaera xanthii; experiment: Fungicidal activity against Podosphaera xanthii (powdery mildew) inoculated in squash (Cucurbita pepo) rootstock seedlings continuously after first drug application assessed as incidence of disease symptoms on hypocotyls or upper or lower sides of cotyledons at 46.1% in 1.50 g/L applied thrice at …; format: functional, organism-based
[41] = system: Podosphaera xanthii; experiment: as §2, with “on upper surface areas of cotyledonsat 46.1%” for “at 98.2%”, “1.50” for “11.99”, “10.2%)” for “17.5%)”; format: functional, organism-based
[42] = system: Podosphaera xanthii; experiment: as §5, with “46.1%” for “45%”, “1.50” for “0.6”; format: functional, organism-based

Question: For `S1SSSSSSS1` [SULFUR], which Activity [1] is on record?
Answer: The Activity was 0.7%.

Question: And the Activity [2]?
Answer: Its Activity is 0.9%.

Question: What about the Activity [3] of the same compound?
Answer: Its Activity is “Non-toxic”.

Question: What about the Activity [4] of the same compound?
Answer: Its Activity is 0%.

Question: What about the Activity [5] of the same compound?
Answer: Its Activity is 34.9%.

Question: What about the Activity [6] of the same compound?
Answer: Its Activity is “Non-toxic”.

Question: What about the Activity [7] of the same compound?
Answer: The Activity was 0.7%.

Question: What about the Activity [8] of the same compound?
Answer: Its Activity is 0.03%.

Question: What about the Activity [9] of the same compound?
Answer: Its Activity is 14.6%.

Question: And the Activity [10]?
Answer: Its Activity is 0.02%.

Question: And the Activity [11]?
Answer: The Activity was “Non-toxic”.

Question: And the Activity [12]?
Answer: The Activity was 3%.

Question: And the Activity [13]?
Answer: The Activity was 3.7%.

Question: And the Activity [14]?
Answer: The Activity was “Non-toxic”.

Question: How did the Activity [15] turn out when `CC(C)(C)C(O)(CCc1ccc(Cl)cc1)Cn1cncn1` (stereo not drawn) [TEBUCONAZOLE] was run?
Answer: The Activity was 0%.

Question: What about the Activity [16] of the same compound?
Answer: Its Activity is 0%.

Question: What about the “inhibition (INH)” value [17] of the same compound?
Answer: Its value is 33%.

Question: And the Activity [18]?
Answer: The Activity was 34.9%.

Question: What about the Activity [19] of the same compound?
Answer: Its Activity is 5.6%.

Question: And the Activity [20]?
Answer: Its Activity is 0.2%.

Question: And the Activity [21]?
Answer: The Activity was 0.2%.

Question: And the Activity [22]?
Answer: The Activity was 0.7%.

Question: What about the Activity [23] of the same compound?
Answer: Its Activity is 0.005%.

Question: And the Activity [24]?
Answer: Its Activity is 0%.

Question: What about the Activity [25] of the same compound?
Answer: Its Activity is 0%.

Question: And the Activity [26]?
Answer: Its Activity is 0.5%.

Question: What about the Activity [27] of the same compound?
Answer: The Activity was 100%.

Question: What about the Activity [28] of the same compound?
Answer: Its Activity is 0.5%.

Question: And the “inhibition (INH)” value [29]?
Answer: The value was 33%.

Question: And the Activity [30]?
Answer: The Activity was 71%.

Question: `COC(=O)NC(=S)Nc1ccccc1NC(=S)NC(=O)OC` [THIOPHANATE METHYL] was tested. Which Activity [31] did it give?
Answer: Its Activity is 7.4%.

Question: What about the Activity [32] of the same compound?
Answer: The Activity was 3.2%.

Question: And the Activity [33]?
Answer: Its Activity is 3%.

Question: What about the Activity [34] of the same compound?
Answer: Its Activity is 85.4%.

Question: And the Activity [11]?
Answer: Its Activity is “Non-toxic”.

Question: And the Activity [35]?
Answer: The Activity was 90.8%.

Question: And the Activity [14]?
Answer: Its Activity is “Non-toxic”.

Question: What about the Activity [36] of the same compound?
Answer: Its Activity is 3.9%.

Question: COPPER HYDROXIDE [listing 1 of 2 here] was tested. Which Activity [3] did it give?
Answer: Its Activity is “Non-toxic”.

Question: And the Activity [6]?
Answer: The Activity was “Non-toxic”.

Question: What about the Activity [11] of the same compound?
Answer: The Activity was “Non-toxic”.

Question: What about the Activity [14] of the same compound?
Answer: The Activity was “Non-toxic”.

Question: Which results are given for COPPER HYDROXIDE [listing 2 of 2 here]?
Answer: Activity [37]: 4.3%; Activity [38]: 97.7%; Activity [39]: 13.6%; Activity [40]: 9.2%; Activity [41]: 8.2%; Activity [42]: 0.21%
